Experimental data from ChEMBL document CHEMBL4828714, “Mutasynthesis of Antibacterial Halogenated Actinomycin Analogues” (J Nat Prod, 2021).
In brackets after ≈: the same amount, converted by molar mass.

Tests used:
Staphylococcus aureus [1] = test: Antimicrobial activity against Staphylococcus aureus Sau 16162 assessed as inhibition of bacterial growth incubated for 16 to 18 hrs by broth micro dilution technique; format: functional; details: time 16-18 hrs
Staphylococcus aureus [2] = test: Antimicrobial activity against Staphylococcus aureus Sau 6917 assessed as inhibition of bacterial growth incubated for 16 to 18 hrs by broth micro dilution technique; format: functional; details: time 16-18 hrs
Staphylococcus aureus [3] = test: Antimicrobial activity against Staphylococcus aureus Sau 1862 assessed as inhibition of bacterial growth incubated for 16 to 18 hrs by broth micro dilution technique; format: functional; details: time 16-18 hrs
Staphylococcus aureus [4] = test: Antimicrobial activity against Staphylococcus aureus Sau 991 assessed as inhibition of bacterial growth incubated for 16 to 18 hrs by broth micro dilution technique; format: functional; details: time 16-18 hrs
Staphylococcus aureus [5] = test: Antimicrobial activity against Staphylococcus aureus Sau 718306 assessed as inhibition of bacterial growth incubated for 16 to 18 hrs by broth micro dilution technique; format: functional; details: time 16-18 hrs
Staphylococcus aureus [6] = test: Antimicrobial activity against Staphylococcus aureus Sau 745524 assessed as inhibition of bacterial growth incubated for 16 to 18 hrs by broth micro dilution technique; format: functional; details: time 16-18 hrs
Staphylococcus aureus [7] = test: Antimicrobial activity against Staphylococcus aureus CCAM 3090 assessed as inhibition of bacterial growth incubated for 16 to 18 hrs by broth micro dilution technique; format: functional; details: time 16-18 hrs
Staphylococcus aureus [8] = test: Antimicrobial activity against Staphylococcus aureus ATCC 29213 assessed as inhibition of bacterial growth incubated for 16 to 18 hrs by broth micro dilution technique; format: functional; details: time 16-18 hrs
Micrococcus luteus = test: Antimicrobial activity against Micrococcus luteus ML01 assessed as inhibition of bacterial growth incubated for 16 to 18 hrs by broth micro dilution technique; format: functional; details: time 16-18 hrs
Enterococcus faecium = test: Antimicrobial activity against Enterococcus faecium ATCC 35682 assessed as inhibition of bacterial growth incubated for 16 to 18 hrs by broth micro dilution technique; format: functional; details: time 16-18 hrs
Enterococcus faecalis = test: Antimicrobial activity against Enterococcus faecalis ATCC 29212 assessed as inhibition of bacterial growth incubated for 16 to 18 hrs by broth micro dilution technique; format: functional; details: time 16-18 hrs
Bacillus thuringiensis = test: Antimicrobial activity against Bacillus thuringiensis BT01 assessed as inhibition of bacterial growth incubated for 16 to 18 hrs by broth micro dilution technique; format: functional; details: time 16-18 hrs
Candida albicans = test: Antimicrobial activity against Candida albicans assessed as inhibition of bacterial growth incubated for 16 to 18 hrs by broth micro dilution technique; format: functional; details: time 16-18 hrs
HepG2 = test: Cytotoxicity against human HepG2 cells assessed as growth inhibition incubated for 68 hrs by MTT assay; format: functional, cell-based; details: HepG2, 68 h
HeLa = test: Cytotoxicity against human HeLa cells assessed as growth inhibition incubated for 68 hrs by MTT assay; format: functional, cell-based
HL-60 = test: Cytotoxicity against human HL-60 cells assessed as growth inhibition incubated for 68 hrs by MTT assay; format: functional, cell-based; details: HL-60, 68 h
RKO = test: Cytotoxicity against human RKO cells assessed as growth inhibition incubated for 68 hrs by MTT assay; format: functional, cell-based
A549 = test: Cytotoxicity against human A549 cells assessed as growth inhibition incubated for 68 hrs by MTT assay; format: functional, cell-based; details: A549, 68 h
MCF7 = test: Cytotoxicity against human MCF7 cells assessed as growth inhibition incubated for 68 hrs by MTT assay; format: functional, cell-based; details: MCF7, 68 h
L02 = test: Cytotoxicity against human L02 cells assessed as growth inhibition incubated for 68 hrs by MTT assay; format: cell-based; details: L02, 68 h
BEAS-2B = test: Cytotoxicity against human BEAS-2B cells assessed as growth inhibition incubated for 68 hrs by MTT assay; format: cell-based

## CC(C)[C@H]1C(=O)O[C@H](C)[C@H](NC(=O)c2c3nc4c(C(=O)N[C@@H]5C(=O)N[C@H](C(C)C)C(=O)N6CCC[C@H]6C(=O)N(C)CC(=O)N(C)[C@@H](C(C)C)C(=O)O[C@@H]5C)ccc(Cl)c4oc-3c(Cl)c(=O)c2N)C(=O)N[C@H](C(C)C)C(=O)N2CCC[C@H]2C(=O)N(C)CC(=O)N1C
Staphylococcus aureus [1]
  MIC: 16 mg/L (≈ 12.3 µM)
Staphylococcus aureus [2]
  MIC: 32 mg/L (≈ 24.7 µM)
Staphylococcus aureus [3]
  MIC: 16 mg/L (≈ 12.3 µM)
Staphylococcus aureus [4]
  MIC: 16 mg/L (≈ 12.3 µM)
Staphylococcus aureus [5]
  MIC: 16 mg/L (≈ 12.3 µM)
Staphylococcus aureus [6]
  MIC: 16 mg/L (≈ 12.3 µM)
Staphylococcus aureus [7]
  MIC: 32 mg/L (≈ 24.7 µM)
Staphylococcus aureus [8]
  MIC: 32 mg/L (≈ 24.7 µM)
Micrococcus luteus
  MIC: 0.06 mg/L (≈ 0.0463 µM)
Enterococcus faecium
  MIC: 0.13 mg/L (≈ 0.1 µM)
Enterococcus faecalis
  MIC: 16 mg/L (≈ 12.3 µM)
Bacillus thuringiensis
  MIC: 0.5 mg/L (≈ 0.386 µM)
Candida albicans
  MIC: 16 mg/L (≈ 12.3 µM)
HepG2
  IC50: 2.8 µM
HeLa
  IC50: 51 µM
HL-60
  IC50: 0.2 µM
RKO
  IC50: 11.1 µM
A549
  IC50: 4.5 µM
MCF7
  IC50: 17.3 µM
L02
  IC50: 4.6 µM
BEAS-2B
  IC50: 1 µM

## CC(C)[C@H]1C(=O)O[C@H](C)[C@H](NC(=O)c2c3nc4c(C(=O)N[C@@H]5C(=O)N[C@H](C(C)C)C(=O)N6CCC[C@H]6C(=O)N(C)CC(=O)N(C)[C@@H](C(C)C)C(=O)O[C@@H]5C)ccc(I)c4oc-3cc(=O)c2N)C(=O)N[C@H](C(C)C)C(=O)N2CCC[C@H]2C(=O)N(C)CC(=O)N1C
Staphylococcus aureus [1]
  MIC: 4 mg/L (≈ 2.96 µM)
Staphylococcus aureus [2]
  MIC: 1 mg/L (≈ 0.739 µM)
Staphylococcus aureus [3]
  MIC: 2 mg/L (≈ 1.48 µM)
Staphylococcus aureus [4]
  MIC: 1 mg/L (≈ 0.739 µM)
Staphylococcus aureus [5]
  MIC: 1 mg/L (≈ 0.739 µM)
Staphylococcus aureus [6]
  MIC: 0.5 mg/L (≈ 0.369 µM)
Staphylococcus aureus [7]
  MIC: 1 mg/L (≈ 0.739 µM)
Staphylococcus aureus [8]
  MIC: 1 mg/L (≈ 0.739 µM)
Micrococcus luteus
  MIC: 0.06 mg/L (≈ 0.0443 µM)
Enterococcus faecium
  MIC: 0.5 mg/L (≈ 0.369 µM)
Enterococcus faecalis
  MIC: 2 mg/L (≈ 1.48 µM)
Bacillus thuringiensis
  MIC: 0.25 mg/L (≈ 0.185 µM)
Candida albicans
  MIC: 0.5 mg/L (≈ 0.369 µM)
HepG2
  IC50: 0.1 µM
HeLa
  IC50: 4.4 µM
HL-60
  IC50: 0.07 µM
RKO
  IC50: 0.1 µM
A549
  IC50: 9 µM
MCF7
  IC50: 2 µM
L02
  IC50: 1.7 µM
BEAS-2B
  IC50: 0.5 µM

## CC(C)[C@H]1C(=O)O[C@H](C)[C@H](NC(=O)c2c3nc4c(C(=O)N[C@@H]5C(=O)N[C@H](C(C)C)C(=O)N6CCC[C@H]6C(=O)N(C)CC(=O)N(C)[C@@H](C(C)C)C(=O)O[C@@H]5C)ccc(F)c4oc-3c(F)c(=O)c2N)C(=O)N[C@H](C(C)C)C(=O)N2CCC[C@H]2C(=O)N(C)CC(=O)N1C
Staphylococcus aureus [1]
  MIC: 32 mg/L (≈ 25.3 µM)
Staphylococcus aureus [2]
  MIC: 32 mg/L (≈ 25.3 µM)
Staphylococcus aureus [3]
  MIC: 32 mg/L (≈ 25.3 µM)
Staphylococcus aureus [4]
  MIC: 32 mg/L (≈ 25.3 µM)
Staphylococcus aureus [5]
  MIC: 32 mg/L (≈ 25.3 µM)
Staphylococcus aureus [6]
  MIC: 32 mg/L (≈ 25.3 µM)
Staphylococcus aureus [7]
  MIC: 32 mg/L (≈ 25.3 µM)
Staphylococcus aureus [8]
  MIC: 32 mg/L (≈ 25.3 µM)
Micrococcus luteus
  MIC: 2 mg/L (≈ 1.58 µM)
Enterococcus faecium
  MIC: 4 mg/L (≈ 3.17 µM)
Enterococcus faecalis
  MIC: 64 mg/L (≈ 50.7 µM)
Bacillus thuringiensis
  MIC: 16 mg/L (≈ 12.7 µM)
Candida albicans
  MIC: 64 mg/L (≈ 50.7 µM)
HepG2
  IC50: > 50 µM
HeLa
  IC50: > 50 µM
HL-60
  IC50: > 50 µM
RKO
  IC50: > 50 µM
A549
  IC50: > 50 µM
MCF7
  IC50: 17.1 µM
L02
  IC50: > 50 µM
BEAS-2B
  IC50: > 50 µM

## CC(C)[C@H]1C(=O)O[C@H](C)[C@H](NC(=O)c2c3nc4c(C(=O)N[C@@H]5C(=O)N[C@H](C(C)C)C(=O)N6CCC[C@H]6C(=O)N(C)CC(=O)N(C)[C@@H](C(C)C)C(=O)O[C@@H]5C)cccc4oc-3c(I)c(=O)c2N)C(=O)N[C@H](C(C)C)C(=O)N2CCC[C@H]2C(=O)N(C)CC(=O)N1C
Staphylococcus aureus [1]
  MIC: 8 mg/L (≈ 5.91 µM)
Staphylococcus aureus [2]
  MIC: 4 mg/L (≈ 2.96 µM)
Staphylococcus aureus [3]
  MIC: 4 mg/L (≈ 2.96 µM)
Staphylococcus aureus [4]
  MIC: 4 mg/L (≈ 2.96 µM)
Staphylococcus aureus [5]
  MIC: 2 mg/L (≈ 1.48 µM)
Staphylococcus aureus [6]
  MIC: 2 mg/L (≈ 1.48 µM)
Staphylococcus aureus [7]
  MIC: 4 mg/L (≈ 2.96 µM)
Staphylococcus aureus [8]
  MIC: 4 mg/L (≈ 2.96 µM)
Micrococcus luteus
  MIC: 0.06 mg/L (≈ 0.0443 µM)
Enterococcus faecium
  MIC: 2 mg/L (≈ 1.48 µM)
Enterococcus faecalis
  MIC: 4 mg/L (≈ 2.96 µM)
Bacillus thuringiensis
  MIC: 1 mg/L (≈ 0.739 µM)
Candida albicans
  MIC: 2 mg/L (≈ 1.48 µM)
HepG2
  IC50: 3.3 µM
HeLa
  IC50: 10 µM
HL-60
  IC50: 0.4 µM
RKO
  IC50: 3.3 µM
A549
  IC50: 34 µM
MCF7
  IC50: 25.7 µM
L02
  IC50: 20.9 µM
BEAS-2B
  IC50: 12.4 µM

## CC(C)[C@H]1C(=O)O[C@H](C)[C@H](NC(=O)c2c3nc4c(C(=O)N[C@@H]5C(=O)N[C@H](C(C)C)C(=O)N6CCC[C@H]6C(=O)N(C)CC(=O)N(C)[C@@H](C(C)C)C(=O)O[C@@H]5C)ccc(Br)c4oc-3c(Br)c(=O)c2N)C(=O)N[C@H](C(C)C)C(=O)N2C[C@@H](O)C[C@H]2C(=O)N(C)CC(=O)N1C
Staphylococcus aureus [1]
  MIC: 16 mg/L (≈ 11.4 µM)
Staphylococcus aureus [2]
  MIC: 32 mg/L (≈ 22.8 µM)
Staphylococcus aureus [3]
  MIC: 16 mg/L (≈ 11.4 µM)
Staphylococcus aureus [4]
  MIC: 16 mg/L (≈ 11.4 µM)
Staphylococcus aureus [5]
  MIC: 16 mg/L (≈ 11.4 µM)
Staphylococcus aureus [6]
  MIC: 16 mg/L (≈ 11.4 µM)
Staphylococcus aureus [7]
  MIC: 16 mg/L (≈ 11.4 µM)
Staphylococcus aureus [8]
  MIC: 16 mg/L (≈ 11.4 µM)
Micrococcus luteus
  MIC: 0.5 mg/L (≈ 0.357 µM)
Enterococcus faecium
  MIC: 2 mg/L (≈ 1.43 µM)
Enterococcus faecalis
  MIC: 32 mg/L (≈ 22.8 µM)
Bacillus thuringiensis
  MIC: 2 mg/L (≈ 1.43 µM)
Candida albicans
  MIC: 8 mg/L (≈ 5.71 µM)
HepG2
  IC50: 3 µM
HeLa
  IC50: 2.4 µM
HL-60
  IC50: 0.2 µM
RKO
  IC50: 1.3 µM
A549
  IC50: 53.7 µM
MCF7
  IC50: 2.9 µM
L02
  IC50: 3.1 µM
BEAS-2B
  IC50: 0.9 µM
